Laboratory results published in ChEMBL document CHEMBL4342418, “1,2,3-Triazole-containing hybrids as potential anticancer agents: Current developments, action mechanisms and structure-activity relationships” (Eur J Med Chem, 2019).
pIC50: −log10 of the molar value.

Legend:
IMR-32 = assay: Antiproliferative activity against human IMR32 cells assessed as reduction in cell viability after 48 hrs by SRB assay; type: functional; details: IMR-32, 48 h
HepG2 [1] = assay: Antiproliferative activity against human HepG2 cells assessed as reduction in cell viability after 48 hrs by SRB assay; type: functional; details: HepG2, 48 h
HeLa [2] = assay: Antiproliferative activity against human HeLa cells assessed as reduction in cell viability after 48 hrs by SRB assay; type: functional
MCF7 [3] = assay: Antiproliferative activity against human MCF7 cells assessed as reduction in cell viability after 48 hrs by SRB assay; type: functional, cell-based; details: MCF7, 48 h
A-431 = assay: Antiproliferative activity against human A431 cells assessed as reduction in cell viability after 24 hrs by MTT assay; type: functional, cell-based; details: A-431, 24 h
MDA-MB-231 [4] = assay: Antiproliferative activity against human MDA-MB-231 cells assessed as reduction in cell viability after 24 hrs by MTT assay; type: functional, cell-based; details: MDA-MB-231, 24 h
COLO 205 = assay: Antiproliferative activity against human COLO205 cells assessed as reduction in cell viability after 24 hrs by MTT assay; type: functional, cell-based; details: COLO 205, 24 h
PC-3 = assay: Antiproliferative activity against human PC3 cells assessed as reduction in cell viability after 24 hrs by MTT assay; type: functional, cell-based; details: PC-3, 24 h
K562 = assay: Antiproliferative activity against human K562 cells assessed as reduction in cell viability after 24 hrs by MTT assay; type: functional, cell-based; details: K562, 24 h
A549 [5] = assay: Antiproliferative activity against human A549 cells assessed as reduction in cell viability after 24 hrs by MTT assay; type: functional, cell-based; details: A549, 24 h
WiDr = assay: Antiproliferative activity against human WiDr cells by MTT assay; type: functional, cell-based
HBL-100 = assay: Antiproliferative activity against human HBL100 cells by MTT assay; type: functional, cell-based
T47D = assay: Antiproliferative activity against human T47D cells by MTT assay; type: functional, cell-based
HeLa [6] = assay: Antiproliferative activity against human HeLa cells by MTT assay; type: functional, cell-based
SW1573 = assay: Antiproliferative activity against human SW1573 cells by MTT assay; type: functional, cell-based
A549 [7] = assay: cells; type: functional, cell-based; details: Homo sapiens
Description: Antiproliferative activity against human A549 cells by MTT assay

MDA-MB-231 [8] = assay: Antiproliferative activity against human MDA-MB-231 cells by MTT assay; type: functional, cell-based
MCF7 [9] = assay: cells; type: functional, cell-based; details: Homo sapiens
Description: Antiproliferative activity against human MCF7 cells by MTT assay

HepG2 [10] = assay: Antiproliferative activity against human HepG2 cells by MTT assay; type: functional, cell-based
KB = assay: Antiproliferative activity against human KB cells by MTT assay; type: functional, cell-based

SMILES	pIC50 (A-431)	pIC50 (MDA-MB-231 [4])	pIC50 (COLO 205)	pIC50 (PC-3)	pIC50 (K562)	pIC50 (A549 [5])	further results
O=[N+]([O-])c1ccc(Cn2cc(COc3cnn(-c4ccc(F)cc4)c3-c3ccc(Cl)cc3)nn2)cc1	–	–	–	–	–	–	GI50 (IMR-32): 1.8 to 9.7 µM; GI50 (HepG2 [1]): 1.8 to 9.7 µM; GI50 (HeLa [2]): 1.8 to 9.7 µM; GI50 (MCF7 [3]): 1.8 to 9.7 µM
C[C@@H]1CC[C@H]2[C@@H](C)C(=O)O[C@@H]3O[C@@]4(C)CC[C@@H]1[C@]32OO4 [ARTEMISININ]	4.16 to 4.41	4.16 to 4.41	4.16 to 4.41	4.16 to 4.41	4.16 to 4.41	4.16 to 4.41	–
C[C@H]1[C@@H](OCc2cn(-c3ccc([N+](=O)[O-])cc3)nn2)O[C@@H]2O[C@@]3(C)CC[C@H]4[C@H](C)CC[C@@H]1[C@@]24OO3	4.05 to 5.39	4.05 to 5.39	4.05 to 5.39	4.05 to 5.39	4.05 to 5.39	4.05 to 5.39	–
COC(=O)c1coc(Cn2cc(CC3CC(CCc4ccccc4)CC(O[Si](C)(C)C(C)(C)C)C3)nn2)n1 (stereo not given)	–	–	–	–	–	–	pIC50 (WiDr): 4.06 to 5.51; pIC50 (HBL-100): 4.06 to 5.51; pIC50 (T47D): 4.06 to 5.51; pIC50 (HeLa [6]): 4.06 to 5.51; pIC50 (SW1573): 4.06 to 5.51; pIC50 (A549 [7]): 4.06 to 5.51
CCCC1CC(Cc2cn(Cc3nc(C(=O)OC)co3)nn2)CC(O[Si](C)(C)C(C)(C)C)C1 (stereo not given)	–	–	–	–	–	–	pIC50 (WiDr): 4.06 to 5.51; pIC50 (HBL-100): 4.06 to 5.51; pIC50 (T47D): 4.06 to 5.51; pIC50 (HeLa [6]): 4.06 to 5.51; pIC50 (SW1573): 4.06 to 5.51; pIC50 (A549 [7]): 4.06 to 5.51
COc1ccc(Cn2cc(Cn3c4ccccc4c(=O)c4cc(OC)ccc43)nn2)cc1	–	–	–	–	–	–	pIC50 (MDA-MB-231 [8]): 4.78 to 4.96; pIC50 (T47D): 4.78 to 4.96; pIC50 (MCF7 [9]): 4.78 to 4.96
Fc1ccc(-n2ncc(OCc3cn(Cc4cccc(Cl)c4)nn3)c2-c2ccc(Cl)cc2)cc1	–	–	–	–	–	–	GI50 (IMR-32): 1.8 to 9.7 µM; GI50 (HepG2 [1]): 1.8 to 9.7 µM; GI50 (HeLa [2]): 1.8 to 9.7 µM; GI50 (MCF7 [3]): 1.8 to 9.7 µM
Cc1ccc(-c2c(OCc3cn(Cc4ccccc4Cl)nn3)cnn2-c2ccc(F)cc2)cc1	–	–	–	–	–	–	GI50 (IMR-32): 1.8 to 9.7 µM; GI50 (HepG2 [1]): 1.8 to 9.7 µM; GI50 (HeLa [2]): 1.8 to 9.7 µM; GI50 (MCF7 [3]): 1.8 to 9.7 µM
CC(=O)c1cccc(-n2cc(CO[C@H]3O[C@@H]4O[C@@]5(C)O[C@]46[C@@H](CC[C@@H](C)[C@@H]6C[C@H]5O)[C@H]3C)nn2)c1	4.05 to 5.39	4.05 to 5.39	4.05 to 5.39	4.05 to 5.39	4.05 to 5.39	4.05 to 5.39	–
CC(=O)c1cccc(-n2cc(CO[C@H]3O[C@@H]4O[C@@]5(C)CC[C@H]6[C@H](C)CC[C@@H]([C@H]3C)[C@@]46OO5)nn2)c1	4.05 to 5.39	4.05 to 5.39	4.05 to 5.39	4.05 to 5.39	4.05 to 5.39	4.05 to 5.39	–
COc1ccc(-n2cc(CO[C@H]3O[C@@H]4O[C@@]5(C)CC[C@H]6[C@H](C)CC[C@@H]([C@H]3C)[C@@]46OO5)nn2)cc1	4.05 to 5.39	4.05 to 5.39	4.05 to 5.39	4.05 to 5.39	4.05 to 5.39	4.05 to 5.39	–
C[C@H]1[C@@H](OCc2cn(-c3ccc(C#N)cc3)nn2)O[C@@H]2O[C@@]3(C)O[C@]24[C@H]1CC[C@@H](C)[C@@H]4C[C@H]3O	4.05 to 5.39	4.05 to 5.39	4.05 to 5.39	4.05 to 5.39	4.05 to 5.39	4.05 to 5.39	–
COc1ccc(Cn2cc(COc3cnn(-c4ccc(F)cc4)c3-c3ccc(C)cc3)nn2)cc1	–	–	–	–	–	–	GI50 (IMR-32): 1.8 to 9.7 µM; GI50 (HepG2 [1]): 1.8 to 9.7 µM; GI50 (HeLa [2]): 1.8 to 9.7 µM; GI50 (MCF7 [3]): 1.8 to 9.7 µM
CC(=O)c1ccc(-n2cc(CO[C@H]3O[C@@H]4O[C@@]5(C)CC[C@H]6[C@H](C)CC[C@@H]([C@H]3C)[C@@]46OO5)nn2)cc1	4.05 to 5.39	4.05 to 5.39	4.05 to 5.39	4.05 to 5.39	4.05 to 5.39	4.05 to 5.39	–
C=C(C)[C@@H]1CC[C@]2(COC(=O)/C=C/C(=O)OCc3cn([C@H]4C[C@H](n5ccc(=O)[nH]c5=O)O[C@@H]4CO)nn3)CC[C@]3(C)[C@H](CC[C@@H]4[C@@]5(C)CC[C@H](O)C(C)(C)[C@@H]5CC[C@]43C)C12 (stereo not given in full)	–	–	–	–	–	–	pIC50 (HepG2 [10]): 5.89; pIC50 (KB): 6.52
CC(=O)c1ccc(-n2cc(CO[C@H]3O[C@@H]4O[C@@]5(C)O[C@]46[C@@H](CC[C@@H](C)[C@@H]6C[C@H]5O)[C@H]3C)nn2)cc1	4.05 to 5.39	4.05 to 5.39	4.05 to 5.39	4.05 to 5.39	4.05 to 5.39	4.05 to 5.39	–
COC(=O)c1coc([C@H](Cc2ccccc2)n2cc(CC3CC(CCc4ccccc4)CC(O[Si](C)(C)C(C)(C)C)C3)nn2)n1 (stereo not given in full)	–	–	–	–	–	–	pIC50 (WiDr): 4.06 to 5.51; pIC50 (HBL-100): 4.06 to 5.51; pIC50 (T47D): 4.06 to 5.51; pIC50 (HeLa [6]): 4.06 to 5.51; pIC50 (SW1573): 4.06 to 5.51; pIC50 (A549 [7]): 4.06 to 5.51
Cc1c(C(=O)Nc2ccccc2)nnn1-c1ccnc2cc(Cl)ccc12	–	–	–	–	–	–	pIC50 (MDA-MB-231 [8]): 4.72; pIC50 (MCF7 [9]): 4.50
C=CCC1CC(Cc2cn([C@H](c3nc(C(=O)OC)co3)C(C)CC)nn2)CC(O[Si](C)(C)C(C)(C)C)C1 (stereo not given in full)	–	–	–	–	–	–	pIC50 (WiDr): 4.06 to 5.51; pIC50 (HBL-100): 4.06 to 5.51; pIC50 (T47D): 4.06 to 5.51; pIC50 (HeLa [6]): 4.06 to 5.51; pIC50 (SW1573): 4.06 to 5.51; pIC50 (A549 [7]): 4.06 to 5.51
